Data reported in PubChem BioAssay AID977613 (Broad Institute, 2014).
Calls of active or inactive are those of the source. How the calls were made is not given here.

Each molecule was assayed on Broad 7084-01 inhibitor HTS, set 2 (assay: inhibitors in Broad screen 7084-01, set 2 (AID 977613);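 further: host cells are infected with parasite promastigotes that become internalized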).

For `O=C(C1CCOCC1)N1CC(=O)N2[C@@H](CO)[C@H](c3ccc(C#CCc4ccccc4)cc3)[C@@H]2C1`, which active concentration is on record?
The active concentration was > 10 µM (inactive).

For `CC(C)CC#Cc1ccc([C@@H]2[C@H](CO)N3C(=O)CN(S(=O)(=O)c4cccc(F)c4)C[C@@H]23)cc1`, which active concentration is on record?
The active concentration was > 10 µM (inactive).

Which active concentration does the source give for `O=C(C[C@@H]1CC[C@H]2[C@@H](COC[C@@H](O)CN2C(=O)c2cccnc2)O1)NCc1ccccc1` here?
The active concentration was > 10 µM (inactive).

How did the active concentration turn out when `COc1ccccc1CN1CC[C@@H]2[C@H](CO)Nc3ccc(C#Cc4ccccc4)cc3[C@@H]21` was run?
Its active concentration is > 10 µM (inactive).

How did the active concentration turn out when `N#C[C@H]1[C@@H](c2ccccc2-c2ccccc2F)[C@H](CO)N1C(=O)C1CCC1` was run?
Its active concentration is > 10 µM (inactive).

How did the active concentration turn out when `CN1c2ccc(C#Cc3cccnc3)cc2[C@H]2[C@H](CCN2C(=O)C2CCCCC2)[C@H]1CO` was run?
Its active concentration is > 10 µM (inactive).

Which active concentration does the source give for `O=C(Cc1ccccn1)N1CC[C@@H]2[C@H](CO)Nc3ccc(-c4cccc(F)c4)cc3[C@@H]21` here?
The active concentration was > 10 µM (inactive).

With `O=C([C@H]1[C@H](CO)[C@H]2Cn3c(ccc(-c4ccccc4F)c3=O)[C@@H]1N2C(=O)C1CCC1)N1CCCCC1` as the molecule, how does the active concentration read?
The active concentration was > 10 µM (inactive).

How did the active concentration turn out when `CCCC#Cc1ccc([C@@H]2[C@@H](CO)N3C(=O)CN(C(=O)CN4CCOCC4)C[C@@H]23)cc1` was run?
Its active concentration is > 10 µM (inactive).

`COc1ccc2c3c(n(C)c2c1)[C@@H](CO)N(CC1CCCC1)CC31CN(C(=O)Nc2ccccc2)C1` was tested. Which active concentration did it give?
The active concentration was > 10 µM (inactive).

`Cc1cc(C(=O)Nc2ccc3c(c2)C(=O)N(C)[C@@H]2CC[C@@H](CC(=O)NCc4ccc(-c5ccccc5)cc4)O[C@H]2CO3)no1` was tested. Which active concentration did it give?
Its active concentration is > 10 µM (inactive).

Which active concentration does the source give for `CC(C)NC(=O)Nc1ccc2c(c1)C(=O)N(C)[C@H]1CC[C@H](CC(=O)NCc3ccc(F)cc3)O[C@H]1CO2` here?
The active concentration was > 10 µM (inactive).

With `O=C(c1cccc(F)c1)N1CC2(C1)[C@H](c1ccccc1)[C@@H](CO)N2C(=O)C1CCCCC1` as the molecule, how does the active concentration read?
Its active concentration is > 10 µM (inactive).

For `C/C=C/c1ccc([C@H]2[C@@H](CO)N(C(=O)CN(C)C)C23CN(C(=O)C2CCC2)C3)cc1`, which active concentration is on record?
Its active concentration is > 10 µM (inactive).

Which active concentration does the source give for `CC=Cc1ccc2n(c1=O)C[C@@H]1[C@@H](CO)[C@H](C(=O)NCC)N(C(=O)CC3CC3)[C@H]21` (mixture of isomers) here?
Its active concentration is > 10 µM (inactive).

Which active concentration does the source give for `CCC(=O)N1C[C@H]2[C@@H](c3ccccc31)[C@H](CO)N2C(=O)CC` here?
Its active concentration is > 10 µM (inactive).

With `O=C(CC(F)(F)F)N1C[C@@H]2[C@H](c3ccccc31)[C@H](CO)N2C(=O)C1CC1` as the molecule, how does the active concentration read?
Its active concentration is > 10 µM (inactive).

Which active concentration does the source give for `O=C(C1CCOCC1)N1CC(=O)N2[C@@H](CO)[C@H](c3ccc(-c4cccnc4)cc3)[C@@H]2C1` here?
The active concentration was > 10 µM (inactive).

Which active concentration does the source give for `O=C(C[C@H]1CC[C@H]2[C@@H](COC[C@H](O)CN2C(=O)Cc2ccccc2)O1)NC1CCCC1` here?
The active concentration was > 10 µM (inactive).

For `O=C(CN1CCOCC1)N1CC(=O)N2[C@H](CO)[C@H](c3ccc(-c4cccc(F)c4)cc3)[C@@H]2C1`, which active concentration is on record?
The active concentration was > 10 µM (inactive).

For `COCC(=O)N1CC[C@@H]2[C@H]1c1cc(-c3ccc(F)cc3)ccc1N(C)[C@@H]2CO`, which active concentration is on record?
The active concentration was > 10 µM (inactive).

Which active concentration does the source give for `C/C=C/c1ccccc1[C@@H]1[C@@H](C#N)N(C(C)=O)[C@@H]1CO` here?
Its active concentration is > 10 µM (inactive).

Which active concentration does the source give for `CC=Cc1ccc2n(c1=O)C[C@H]1[C@H](CO)[C@@H](C(=O)NCC)[C@@H]2N1Cc1cccc(Cl)c1` (mixture of isomers) here?
Its active concentration is > 10 µM (inactive).

How did the active concentration turn out when `CCCC#Cc1ccc([C@@H]2[C@@H](CO)N3C(=O)CN(S(=O)(=O)c4ccccc4C)C[C@H]23)cc1` was run?
The active concentration was > 10 µM (inactive).

For `COc1ccc2c3c([nH]c2c1)[C@@H](CO)NCC31CN(C(=O)Nc2ccc3c(c2)OCO3)C1`, which active concentration is on record?
The active concentration was > 10 µM (inactive).

Which active concentration does the source give for `COc1cccc(CN2CCCCN3[C@H](C2)[C@H](c2ccc(-c4cccnc4)cc2)[C@@H]3CO)c1` here?
The active concentration was > 10 µM (inactive).

With `O=C(CN1CCOCC1)N1CC(=O)N2[C@H](CO)[C@@H](c3ccc(-c4cccc(F)c4)cc3)[C@@H]2C1` as the molecule, how does the active concentration read?
Its active concentration is > 10 µM (inactive).

For `CCC(=O)N1[C@@H](CO)[C@@H]2c3ccccc3N(S(=O)(=O)c3ccccc3C)C[C@@H]21`, which active concentration is on record?
The active concentration was > 10 µM (inactive).

For `CC(C)(O)C#Cc1ccc([C@H]2[C@@H](CO)N3CCCCN(S(C)(=O)=O)C[C@@H]23)cc1`, which active concentration is on record?
The active concentration was > 10 µM (inactive).

Which active concentration does the source give for `N#C[C@@H]1[C@H](c2ccccc2C2=CCCCC2)[C@H](CO)N1C(=O)C1CCOCC1` here?
Its active concentration is > 10 µM (inactive).

For `O=C(C[C@@H]1CC[C@@H]2NC[C@@H](O)COC[C@H]2O1)NCCN1CCCC1`, which active concentration is on record?
Its active concentration is > 10 µM (inactive).

How did the active concentration turn out when `COc1ccccc1CN1[C@H](CO)[C@@H]2c3ccccc3N(C(=O)c3cccnc3)C[C@@H]21` was run?
The active concentration was > 10 µM (inactive).

How did the active concentration turn out when `CCC(=O)N1[C@H](CO)[C@H](c2ccccc2)C12CN(C(=O)c1ccc3c(c1)OCO3)C2` was run?
The active concentration was > 10 µM (inactive).

How did the active concentration turn out when `Cc1ccccc1-c1ccc([C@H]2[C@H](CO)N3C(=O)CN(S(C)(=O)=O)C[C@@H]23)cc1` was run?
The active concentration was > 10 µM (inactive).

`O=C(NCCCN1CCOCC1)[C@@H]1[C@@H](CO)[C@@H]2Cn3c(ccc(C4=CCCCC4)c3=O)[C@H]1N2` was tested. Which active concentration did it give?
The active concentration was > 10 µM (inactive).
